Converted amounts (≈) assume the structure as drawn.
Experiments:
[1] = Intrinsic clearance in human hepatocytes at 0.3 uM incubated for 90 mins by LC/MS/MS analysis; type: ADME, cell-based, Hepatocyte; conditions: read-out: CLH
[2] = Intrinsic clearance in Beagle dog at 0.25 mg/kg, iv by LC-MS/MS analysis; type: ADME, organism-based, Canis lupus familiaris; conditions: in vivo
Salmonella typhimurium [3] = assay: Mutagenicity in Salmonella typhimurium TA1535 at 30 to 5000 ug incubated for 48 hrs in presence of liver S9 fraction by AMES test; type: toxicity, organism-based, Salmonella enterica subsp. enterica serovar Typhimurium; conditions: s9, 48 h, dose 30-5000 µg
[4] = Intrinsic clearance in dog hepatocytes at 0.3 uM incubated for 90 mins by LC/MS/MS analysis; type: ADME, cell-based, Canis lupus familiaris, Hepatocyte; conditions: read-out: CLH
GSTA5 = assay: Toxicity in rat assessed as fold increase in GSTA5 transcriptional activity in liver at 75 mg/kg, po bid administered for 4 days relative to control; type: organism-based; conditions: time 4 day, read-out: FC
[5] = AUC in rat at 10 to 75 mg/kg, po bid administered for 4 days; type: ADME, organism-based; parameters: time 4 day; conditions: in vivo, 96 h, dose 10-75 mg/kg
[6] = Intrinsic clearance in Wistar Han rat at 2 mg/kg, iv by LC-MS/MS analysis; type: ADME, organism-based; conditions: in vivo
[7] = Toxicity in rat assessed as drug tolerability at 10 to 75 mg/kg, po bid administered for 4 days; type: organism-based; conditions: in vivo, 96 h, dose 10-75 mg/kg, time 4 day
[8] = Intrinsic clearance in Rhesus monkey at 0.1 mg/kg, iv by LC-MS/MS analysis; type: ADME, organism-based, Macaca mulatta; conditions: in vivo
mouse Bcrp [9] = assay: Apparent permeability in mouse Bcrp-transfected dog MDCK-II cells at 0.1 to 1 uM measured after 3 hrs by LC/MS/MS analysis; type: ADME, cell-based, Canis lupus familiaris; conditions: dose 0.1-1 µM
Salmonella typhimurium [10] = assay: Mutagenicity in Salmonella typhimurium TA98 at 30 to 5000 ug incubated for 48 hrs in presence of liver S9 fraction by AMES test; type: toxicity, organism-based, Salmonella enterica subsp. enterica serovar Typhimurium; conditions: s9, 48 h, dose 30-5000 µg
[11] = Toxicity in rat assessed as elevation of PXR gene expression at 10 to 75 mg/kg, po bid administered for 4 days; type: organism-based; conditions: in vivo, 96 h, dose 10-75 mg/kg, time 4 day
[12] = molecular target: Voltage-gated inwardly rectifying potassium channel KCNH2 (Homo sapiens, UniProt Q12809); assay: Inhibition of human ERG by voltage clamp assay; type: toxicity
Chain of Voltage-gated inwardly rectifying potassium channel KCNH2 (Q12809 whole entry): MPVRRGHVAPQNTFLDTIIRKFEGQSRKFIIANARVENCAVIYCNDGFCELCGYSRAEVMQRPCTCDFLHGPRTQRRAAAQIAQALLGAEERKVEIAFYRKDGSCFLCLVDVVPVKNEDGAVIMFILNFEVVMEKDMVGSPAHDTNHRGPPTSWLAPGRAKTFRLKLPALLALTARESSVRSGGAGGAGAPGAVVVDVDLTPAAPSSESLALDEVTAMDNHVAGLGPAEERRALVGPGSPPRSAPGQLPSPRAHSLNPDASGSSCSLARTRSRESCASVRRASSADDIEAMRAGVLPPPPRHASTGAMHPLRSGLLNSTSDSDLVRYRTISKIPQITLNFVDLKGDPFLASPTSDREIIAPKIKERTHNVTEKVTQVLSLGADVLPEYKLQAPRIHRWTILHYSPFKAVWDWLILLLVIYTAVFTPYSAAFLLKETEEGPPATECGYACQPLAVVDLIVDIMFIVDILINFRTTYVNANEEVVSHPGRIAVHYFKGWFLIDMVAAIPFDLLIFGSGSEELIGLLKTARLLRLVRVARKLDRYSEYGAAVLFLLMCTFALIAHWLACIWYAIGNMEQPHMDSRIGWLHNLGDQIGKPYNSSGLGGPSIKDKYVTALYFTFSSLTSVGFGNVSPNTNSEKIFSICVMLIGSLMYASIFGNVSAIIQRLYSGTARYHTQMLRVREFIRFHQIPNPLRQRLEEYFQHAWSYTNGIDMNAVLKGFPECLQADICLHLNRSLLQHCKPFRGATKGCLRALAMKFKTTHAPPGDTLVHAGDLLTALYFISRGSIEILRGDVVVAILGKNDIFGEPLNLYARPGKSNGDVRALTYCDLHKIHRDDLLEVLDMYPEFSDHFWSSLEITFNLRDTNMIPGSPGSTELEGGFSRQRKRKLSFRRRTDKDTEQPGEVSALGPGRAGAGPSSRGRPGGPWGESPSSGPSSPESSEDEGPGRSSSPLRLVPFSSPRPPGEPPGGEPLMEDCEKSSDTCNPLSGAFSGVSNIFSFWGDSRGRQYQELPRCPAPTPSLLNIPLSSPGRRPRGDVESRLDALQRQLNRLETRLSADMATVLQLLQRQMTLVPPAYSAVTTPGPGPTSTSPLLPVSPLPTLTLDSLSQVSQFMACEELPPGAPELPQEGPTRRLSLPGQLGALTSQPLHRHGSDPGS

[13] = Intrinsic clearance in rat hepatocytes at 0.3 uM incubated for 90 mins by LC/MS/MS analysis; type: ADME, cell-based, Hepatocyte; conditions: read-out: CLH
[14] = Thermodynamic solubility of the compound in FaSSIF measured after 24 hrs by reverse phase UPLC analysis; type: physicochemical; conditions: read-out: Therm_solubility
UGT1A6 = assay: Toxicity in rat assessed as fold increase in UGT1A6 transcriptional activity in liver at 75 mg/kg, po bid administered for 4 days relative to control; type: organism-based; conditions: time 4 day, read-out: FC
Salmonella typhimurium [15] = assay: Mutagenicity in Salmonella typhimurium TA100 at 30 to 5000 ug incubated for 48 hrs in presence of liver S9 fraction by AMES test; type: toxicity, organism-based, Salmonella enterica subsp. enterica serovar Typhimurium; conditions: s9, 48 h, dose 30-5000 µg
[16] = Unbound brain-to-plasma concentration ratio in rat at 2.5 uM incubated for 4 hrs by equilibrium dialysis method; type: ADME, cell-free; conditions: brain and plasma (unbound), read-out: K(p,uu,brain)
[17] = MRT in Rhesus monkey at 0.1 mg/kg, iv by LC-MS/MS analysis; type: ADME, organism-based, Macaca mulatta; conditions: in vivo
[18] = molecular target: MAP/microtubule affinity-regulating kinase 3 (Homo sapiens, UniProt P27448); assay: Inhibition of MARK3 (unknown origin)
Chain of MAP/microtubule affinity-regulating kinase 3 (P27448 whole entry): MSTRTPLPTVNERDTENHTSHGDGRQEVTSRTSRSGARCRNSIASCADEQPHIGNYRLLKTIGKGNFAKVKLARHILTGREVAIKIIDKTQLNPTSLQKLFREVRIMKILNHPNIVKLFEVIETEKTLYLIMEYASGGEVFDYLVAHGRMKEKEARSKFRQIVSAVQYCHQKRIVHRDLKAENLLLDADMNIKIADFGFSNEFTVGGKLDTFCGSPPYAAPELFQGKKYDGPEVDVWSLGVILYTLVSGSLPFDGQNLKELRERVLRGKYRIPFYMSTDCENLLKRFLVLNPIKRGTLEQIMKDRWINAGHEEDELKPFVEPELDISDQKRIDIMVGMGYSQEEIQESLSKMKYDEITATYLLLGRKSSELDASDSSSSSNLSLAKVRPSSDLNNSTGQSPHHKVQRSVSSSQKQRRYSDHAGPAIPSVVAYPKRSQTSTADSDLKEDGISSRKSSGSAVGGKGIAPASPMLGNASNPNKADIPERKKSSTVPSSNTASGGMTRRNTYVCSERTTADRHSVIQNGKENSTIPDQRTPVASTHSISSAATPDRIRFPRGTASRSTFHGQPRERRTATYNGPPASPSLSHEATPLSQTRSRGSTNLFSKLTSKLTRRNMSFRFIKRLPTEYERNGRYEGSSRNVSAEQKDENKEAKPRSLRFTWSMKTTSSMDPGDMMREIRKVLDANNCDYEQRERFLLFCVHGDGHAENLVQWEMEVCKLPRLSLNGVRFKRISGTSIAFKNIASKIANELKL

[19] = molecular target: T1, Natriuretic peptides A (Homo sapiens) (UniProt P01160); assay: Agonist activity at ANF (unknown origin) at 10 uM; conditions: filed as agonist
T1 sequence (whole entry): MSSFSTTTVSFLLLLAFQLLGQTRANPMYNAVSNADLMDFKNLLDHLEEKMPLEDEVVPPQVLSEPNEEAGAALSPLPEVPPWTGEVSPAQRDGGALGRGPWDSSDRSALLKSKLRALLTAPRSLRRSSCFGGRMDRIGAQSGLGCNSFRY

rat Mdr1a (P-gp) [20] = assay: Efflux ratio of apparent permeability across basolateral to apical side over apical to basolateral side in rat Mdr1a-transfected pig LLC-PK1 cells at 0.1 to 1 uM measured after 3 hrs by LC/MS/MS analysis; type: ADME, cell-based, Sus scrofa; conditions: dose 0.1-1 µM
[21] = Oral bioavailability in Wistar Han rat at 10 mg/kg by LC-MS/MS analysis; type: ADME, organism-based; conditions: in vivo
[22] = Toxicity in rat assessed as elevation of inflammatory response related gene expression at 10 to 75 mg/kg, po bid administered for 4 days; type: organism-based; conditions: in vivo, 96 h, dose 10-75 mg/kg, time 4 day
[23] = Total plasma clearance in Wistar Han rat at 2 mg/kg, iv by LC-MS/MS analysis; type: ADME, organism-based
[24] = Total plasma clearance in Beagle dog at 0.25 mg/kg, iv by LC-MS/MS analysis; type: ADME, organism-based, Canis lupus familiaris
[25] = Toxicity in rat assessed as elevation of AhR gene expression at 10 to 75 mg/kg, po bid administered for 4 days; type: organism-based; conditions: in vivo, 96 h, dose 10-75 mg/kg, time 4 day
CYP1A1 = assay: Toxicity in rat assessed as fold induction of CYP1A1 transcriptional activity in liver at 10 to 75 mg/kg, po bid administered for 4 days relative to control; type: organism-based; conditions: dose 10-75 mg/kg, time 4 day, read-out: FC
rat Mdr1a (P-gp) [26] = assay: Apparent permeability from apical to basolateral side in rat Mdr1a-transfected pig LLC-PK1 cells at 0.1 to 1 uM measured after 3 hrs by LC/MS/MS analysis; type: ADME, cell-based, Sus scrofa; conditions: dose 0.1-1 µM
[27] = molecular target: Leucine-rich repeat serine/threonine-protein kinase 2 (Homo sapiens) (UniProt Q5S007); assay: Ex vivo inhibition of LRRK2 in human PBMC assessed as unbound concentration required for reduction in LRRK2 phosphorylation at Ser935 residue incubated for 90 mins by MSD assay; type: cell-based
Chain of Leucine-rich repeat serine/threonine-protein kinase 2 (Homo sapiens) (Q5S007 whole entry): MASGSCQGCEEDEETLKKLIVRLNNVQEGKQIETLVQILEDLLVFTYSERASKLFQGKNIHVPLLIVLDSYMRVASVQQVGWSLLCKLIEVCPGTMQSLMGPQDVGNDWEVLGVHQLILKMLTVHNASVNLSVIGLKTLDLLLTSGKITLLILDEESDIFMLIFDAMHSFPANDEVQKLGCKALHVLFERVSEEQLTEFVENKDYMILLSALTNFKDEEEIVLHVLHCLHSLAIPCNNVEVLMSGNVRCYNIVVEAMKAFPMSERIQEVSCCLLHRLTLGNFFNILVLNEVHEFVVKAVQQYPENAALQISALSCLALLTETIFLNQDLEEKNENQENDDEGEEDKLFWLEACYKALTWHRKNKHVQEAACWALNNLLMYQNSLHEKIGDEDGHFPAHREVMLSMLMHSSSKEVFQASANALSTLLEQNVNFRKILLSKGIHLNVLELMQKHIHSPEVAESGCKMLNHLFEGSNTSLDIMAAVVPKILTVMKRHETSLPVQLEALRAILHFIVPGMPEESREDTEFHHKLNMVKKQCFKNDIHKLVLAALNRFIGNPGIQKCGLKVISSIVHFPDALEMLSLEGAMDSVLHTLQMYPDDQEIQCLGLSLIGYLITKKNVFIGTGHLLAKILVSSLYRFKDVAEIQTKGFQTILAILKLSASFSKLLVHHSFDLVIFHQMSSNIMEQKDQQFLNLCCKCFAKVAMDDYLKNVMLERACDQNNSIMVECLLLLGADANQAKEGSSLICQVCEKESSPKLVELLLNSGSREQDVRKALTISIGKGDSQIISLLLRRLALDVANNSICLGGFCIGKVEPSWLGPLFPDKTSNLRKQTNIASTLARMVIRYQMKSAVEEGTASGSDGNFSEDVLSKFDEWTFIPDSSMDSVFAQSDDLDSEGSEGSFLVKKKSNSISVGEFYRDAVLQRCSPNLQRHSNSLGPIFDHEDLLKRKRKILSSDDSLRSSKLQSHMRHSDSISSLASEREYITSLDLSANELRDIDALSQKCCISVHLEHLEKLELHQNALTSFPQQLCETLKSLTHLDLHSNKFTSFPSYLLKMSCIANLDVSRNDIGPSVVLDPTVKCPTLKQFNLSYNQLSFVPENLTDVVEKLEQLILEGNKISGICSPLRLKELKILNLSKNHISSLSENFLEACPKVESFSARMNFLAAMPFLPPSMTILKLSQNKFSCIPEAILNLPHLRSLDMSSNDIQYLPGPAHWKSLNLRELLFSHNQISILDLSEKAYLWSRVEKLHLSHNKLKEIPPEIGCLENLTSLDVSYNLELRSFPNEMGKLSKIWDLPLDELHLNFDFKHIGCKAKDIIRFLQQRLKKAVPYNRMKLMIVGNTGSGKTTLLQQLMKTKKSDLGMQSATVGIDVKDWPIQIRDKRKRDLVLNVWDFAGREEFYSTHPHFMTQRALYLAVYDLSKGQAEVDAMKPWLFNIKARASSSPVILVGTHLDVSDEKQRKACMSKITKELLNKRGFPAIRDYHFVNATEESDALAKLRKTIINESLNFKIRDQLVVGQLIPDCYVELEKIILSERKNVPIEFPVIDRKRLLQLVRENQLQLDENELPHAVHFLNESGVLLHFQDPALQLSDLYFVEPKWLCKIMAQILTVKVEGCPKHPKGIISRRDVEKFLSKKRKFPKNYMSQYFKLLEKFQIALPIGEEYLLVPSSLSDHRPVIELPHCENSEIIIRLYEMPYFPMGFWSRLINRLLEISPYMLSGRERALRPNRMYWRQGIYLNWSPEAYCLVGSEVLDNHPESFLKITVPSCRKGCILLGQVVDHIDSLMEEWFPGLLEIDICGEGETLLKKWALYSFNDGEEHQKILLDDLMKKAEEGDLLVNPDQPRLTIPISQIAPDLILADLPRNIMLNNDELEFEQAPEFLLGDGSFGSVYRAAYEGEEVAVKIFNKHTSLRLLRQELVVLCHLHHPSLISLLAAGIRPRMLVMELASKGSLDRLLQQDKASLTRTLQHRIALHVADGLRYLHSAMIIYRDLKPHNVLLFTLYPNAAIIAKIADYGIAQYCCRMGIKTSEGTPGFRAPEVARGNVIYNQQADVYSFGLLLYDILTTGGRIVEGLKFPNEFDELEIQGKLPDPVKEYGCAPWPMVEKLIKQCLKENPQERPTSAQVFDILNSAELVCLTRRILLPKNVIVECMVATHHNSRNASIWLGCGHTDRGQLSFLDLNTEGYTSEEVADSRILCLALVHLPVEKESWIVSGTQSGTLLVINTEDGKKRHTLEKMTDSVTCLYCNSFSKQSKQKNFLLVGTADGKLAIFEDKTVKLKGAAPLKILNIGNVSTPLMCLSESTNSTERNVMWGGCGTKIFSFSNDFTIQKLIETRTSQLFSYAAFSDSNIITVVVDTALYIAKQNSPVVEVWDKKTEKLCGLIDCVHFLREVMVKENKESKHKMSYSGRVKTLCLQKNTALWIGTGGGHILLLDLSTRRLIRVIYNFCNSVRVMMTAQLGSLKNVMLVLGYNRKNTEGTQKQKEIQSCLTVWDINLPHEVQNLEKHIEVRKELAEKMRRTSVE

[28] = Total plasma clearance in Rhesus monkey at 0.1 mg/kg, iv by LC-MS/MS analysis; type: ADME, organism-based, Macaca mulatta
[29] = Oral bioavailability in Beagle dog at 0.5 mg/kg by LC-MS/MS analysis; type: ADME, organism-based, Canis lupus familiaris; conditions: in vivo
mouse Bcrp [30] = assay: Efflux ratio of apparent permeability across basolateral to apical over apical to basolateral side in mouse Bcrp-transfected dog MDCK-II cells at 0.1 to 1 uM measured after 3 hrs by LC/MS/MS analysis; type: ADME, cell-based, Canis lupus familiaris; conditions: dose 0.1-1 µM
[31] = MRT in Beagle dog at 0.25 mg/kg, iv by LC-MS/MS analysis; type: ADME, organism-based, Canis lupus familiaris; conditions: in vivo
[32] = MRT in Wistar Han rat at 2 mg/kg, iv by LC-MS/MS analysis; type: ADME, organism-based; conditions: in vivo
Homo sapiens [33] = organism: Homo sapiens; assay: Selectivity ratio of IC50 for MAP3K8 (unknown origin) to IC50 for LRRK2 (unknown origin)
[34] = Toxicity in rat assessed as elevation of liver enzyme biomarker levels at 300 mg/kg, po qd administered for 4 days; type: organism-based; conditions: in vivo, 96 h, time 4 day
[35] = Toxicity in rat assessed as drug tolerability at 25 to 300 mg/kg, po qd administered for 4 days; type: organism-based; conditions: in vivo, 96 h, dose 25-300 mg/kg, time 4 day
[36] = Toxicity in rat assessed as positive liver transcriptional score at 300 mg/kg, po qd administered for 4 days; type: organism-based; conditions: in vivo, 96 h, time 4 day
[37] = molecular target: T2, 5-hydroxytryptamine receptor 1A (Homo sapiens) (UniProt P08908); assay: Inhibition of human 5HT1A receptor at 10 uM
T2 sequence (whole entry): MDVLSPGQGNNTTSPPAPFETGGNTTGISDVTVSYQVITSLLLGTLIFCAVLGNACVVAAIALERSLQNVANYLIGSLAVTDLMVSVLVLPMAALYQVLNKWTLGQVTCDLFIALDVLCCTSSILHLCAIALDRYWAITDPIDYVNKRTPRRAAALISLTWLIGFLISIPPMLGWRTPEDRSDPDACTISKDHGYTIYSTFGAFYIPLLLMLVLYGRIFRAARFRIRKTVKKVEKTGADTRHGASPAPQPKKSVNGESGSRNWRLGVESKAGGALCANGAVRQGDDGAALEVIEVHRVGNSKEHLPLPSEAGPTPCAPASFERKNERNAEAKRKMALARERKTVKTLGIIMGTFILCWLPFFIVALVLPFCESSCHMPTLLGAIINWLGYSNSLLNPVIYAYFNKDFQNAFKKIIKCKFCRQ

Homo sapiens [38] = organism: Homo sapiens; assay: Selectivity ratio of IC50 for AURKA (unknown origin) to IC50 for LRRK2 (unknown origin)
[39] = system: Leucine-rich repeat serine/threonine-protein kinase 2 (Homo sapiens), Q5S007 [G2019S]; assay: Inhibition of LRRK2 […] mutant expressed in human SH-SY5Y cells assessed as unbound concentration required for inhibition of phosphorylation of LRRK2 at Ser935 residue incubated for 90 mins by MSD assay; type: cell-based
Chain of Leucine-rich repeat serine/threonine-protein kinase 2 (Homo sapiens), Q5S007 [G2019S] (Q5S007 whole entry G2019S): as the sequence (Q5S007 whole entry) above, with G2019S counted along it

[40] = Toxicity in rat assessed as positive heart transcriptional score at 300 mg/kg, po qd administered for 4 days; type: organism-based; conditions: in vivo, 96 h, time 4 day
[41] = In vivo inhibition of LRRK2 in po dosed CD rat assessed as unbound concentration required for reduction in phosphorylation at Ser935 residue in striatum measured after 2 hrs by MSD assay; type: functional
Homo sapiens [42] = organism: Homo sapiens; assay: Selectivity ratio of IC50 for PRKCZ (unknown origin) to IC50 for LRRK2 (unknown origin)
[43] = molecular target: Leucine-rich repeat serine/threonine-protein kinase 2 (Homo sapiens, UniProt Q5S007, G2019S); assay: Inhibition of recombinant N-terminal GST-fused LRRK2 […] mutant (970 to 2527 residues) (unknown origin) preincubated with enzyme for 15 mins followed by fluorescein-labeled LRRKtide peptide substrate and ATP addition for 90 mins by TR-FRET assay
Chain of Leucine-rich repeat serine/threonine-protein kinase 2 (Q5S007 whole entry G2019S, the tested form may be a part): as the sequence (Q5S007 whole entry) above, with G2019S counted along it

[44] = Toxicity in rat assessed as body weight loss at 300 mg/kg, po qd administered for 4 days; type: organism-based; conditions: in vivo, 96 h, time 4 day

SMILES	CLint scaled at 0.3 µM [1]	CL [2]	Activity (Salmonella typhimurium [3])	CLint scaled at 0.3 µM [4]	CL [6]	Activity (Salmonella typhimurium [10])	IC50 [12]	CLint scaled at 0.3 µM [13]	Activity (Salmonella typhimurium [15])	Kp uu at 4 h, 2.5 µM [16]	efflux ratio at 3 h, up to 1 µM (rat Mdr1a (P-gp) [20])	bioavailability [21]	clearance [23]	clearance [24]	Papp A→B at 3 h, up to 1 µM (rat Mdr1a (P-gp) [26])	bioavailability [29]	efflux ratio at 3 h, up to 1 µM (mouse Bcrp [30])	MRT [31]	MRT [32]	other results
Cc1c(Nc2ncc3cc(Cl)c(C4CCN([C@@H]5COC[C@@H]5O)CC4)cc3n2)cnn1[C@@H]1CC1(F)F	114 mL/min/kg	205 mL/min/kg	Non-Toxic	160 mL/min/kg	480 mL/min/kg	Non-Toxic	6.2 µM	464 mL/min/kg	Non-Toxic	0.43	4.3	64%	28 mL/min/kg	15 mL/min/kg	31 ×10⁻⁶ cm/s	65%	4.1	16 h	3.7 h	fold induction at 96 h (GSTA5): 5; AUC [5]: 16 µM·h; Activity [7]: Non-Toxic; CL [8]: 486 mL/min/kg; Papp at 3 h, up to 1 µM (mouse Bcrp [9]): 30 ×10⁻⁶ cm/s; Activity [11]: Non-Toxic; solubility thermodynamic at 24 h [14]: 30 µg/mL (≈ 59.4 µM); fold induction at 96 h (UGT1A6): 2.5; MRT [17]: 4.8 h; IC50 [18]: 5.7 µM; Activity [19]: 60%; Activity [22]: Non-Toxic; Activity [25]: Non-Toxic; fold induction at 96 h (CYP1A1): 3; fIC50 [27]: 2.6 nM; clearance [28]: 29 mL/min/kg
CC(C)(O)Cn1ncc(Nc2ncc3cc(Cl)c(C4CCN(C5COC5)CC4)cc3n2)c1Cl	132 mL/min/kg	63 mL/min/kg	Non-Toxic	150 mL/min/kg	175 mL/min/kg	Non-Toxic	23 µM	311 mL/min/kg	Non-Toxic	0.3	4.2	95%	11 mL/min/kg	7 mL/min/kg	33 ×10⁻⁶ cm/s	85%	4.2	7.8 h	2.7 h	Ratio IC50 (Homo sapiens [33]): < 100; Activity [34]: Toxic; Activity [35]: Non-Toxic; Activity [36]: Toxic; inhibition [37]: > 50%; Ratio IC50 (Homo sapiens [38]): < 100; fIC50 [39]: 58 nM; Activity [40]: Toxic; fIC50 [41]: 68 nM; Ratio IC50 (Homo sapiens [42]): < 100; IC50 [43]: 0.0008 µM; Activity [44]: 11%
